Columns and labels:
PDE4B2 [1] = test: PDE4B2 protein expression (Western blot) in mouse lung tissue extracts; format: in vivo; settings: NTHi and roflumilast
Description: (§2) Western blot. Whole-cell extracts and mouse lung tissue extracts were recovered with lysis buffer (50 mM Tris-HCl at pH7.4, 1% NP40, 0.25% deoxycholate, 150 mM NaCl, 1 mM EDTA, 1 mM NaF, supplemented with 1 mM Na3VO4 and PIC). For PDE4B protein, cell extracts were recovered with Buffer A as described above. Cell or tissue extracts were separated on 8% SDS-PAGE gels and transferred to polyvinylidene difluoride (PVDF) membrane (GE Healthcare Life Sciences). The membrane was blocked with a solution of TBS containing 0.1% Tween 20 (TBS-T) and 5% non-fat dry milk. The membrane was then incubated in a 1:1,000-1:2,000 dilution of a primary antibody in 5% BSA-TBS-T. After washing (×3) with TBS-T, the membrane was incubated with a 1:5,000 dilution of the corresponding secondary antibody in 2.5% non-fat dry milk-TBS-T. Respective proteins were visualized using Amersham ECL Prime Regent (GE Healthcare Life Sciences).
Mice and animal experiments. […]
Immunofluorescent staining. Formalin-fixed paraffin-embedded mouse lung tissue was sectioned (4 μm) and PDE4B protein was detected using a rabbit anti-PDE4B and an FITC-conjugated goat anti-rabbit IgG (Santa Cruz Biotechnology). Stained sections were then imaged, and images were recorded under light- and fluorescence-microscopy systems (AxioVert 40 CFL, AxioCam MRC, and AxioVision LE Image system, Carl Zeiss).

p65 or PKA-Cβ = test: Nuclear expression level of p65 or PKA-Cβ in BEAS-2B cells; format: cell-based, human
Description: Subcellular fractionation. Cells were washed twice and […] with ice cold PBS and centrifuged at 3,000×g for 5 min. The cells were then suspended with Buffer A (10 mM HEPES at pH7.4, 10 mM KCl, 0.1 mM EDTA, 0.1 mM EGTA, 1 mM DTT, supplemented with 1 mM Na3VO4 and PIC) and incubated on ice for 10 min (Schreiber et al., Nucleic Acids Res. 17(15):6419, 1989). The cells were lysed by adding NP40 (0.5%) and vortexing for 15 sec. then centrifuged at 3,000×g for 5 min before the supernatants were removed (cytosol fraction). Precipitates were resuspended in Buffer B (20 mM HEPES at pH7.5, 5 mM NaCl, 1 mM EDTA, […], 1 mM DTT, supplemented with 1 mM Na3VO4 and PIC) and incubated on ice for 10 min. before vortexing and centrifuging at 16,000×g for 15 min to recover the supernatants (nuclear fraction). Western blot. Whole-cell extracts and mouse lung tissue extracts were recovered with lysis buffer (50 mM Tris-HCl at pH7.4, 1% NP40, 0.25% deoxycholate, 150 mM NaCl, 1 mM EDTA, 1 mM NaF, supplemented with 1 mM Na3VO4 and PIC). For PDE4B protein, cell extracts were recovered with Buffer A as described above. Cell or tissue extracts were separated on 8% SDS-PAGE gels and transferred to polyvinylidene difluoride (PVDF) membrane (GE Healthcare Life Sciences). The membrane was blocked with a solution of TBS containing 0.1% Tween 20 (TBS-T) and 5% non-fat dry milk. […]

PDE4D = test: Expression of PDE4D in BEAS-2B cells; format: cell-based, human; settings: NTHi or roflumilast
PDE4B [2] = test: PDE4B mRNA expression (Q-PCR) in primary NHBE cells stimulated with NTHi; format: cell-based, human; settings: Rof 0.1 μM 1 hour, then 1.5-hour NTHi
Description: (§1) Bacterial strains and culture condition. Clinical isolates of NTHi strain 12 were used in this study (Ishinaga et al., EMBO J., 26(4):1150-1162, 2007). Bacteria were grown on chocolate agar plates at 37° C. in an atmosphere of 5% CO2 overnight and subsequently inoculated in brain heart infusion (BHI) broth supplemented with 3.5 μg/mL NAD and hemoglobin (BD Biosciences). After overnight incubation, the bacteria were subcultured into fresh broth and the log phase bacteria, monitored by measurement of optical density (OD) value, were washed and suspended in DMEM for in vitro cell experiments and in isotonic saline for in vivo animal experiments. For all in vitro experiments except the dose dependent experiment, NTHi was treated at multiplicity of infection (MOI) of 50.
Cell culture. All media described below were supplemented with 10% fetal bovine serum (Sigma-Aldrich). Human bronchial epithelial BEAS-2B cells were maintained in RPMI medium (Life Technologies) (ATCC® CRL-9609™). Human primary bronchial epithelial NHBE (Lonza) cells were maintained in bronchial epithelial growth media (BEGM) supplemented with BEGM SingleQuots (Jono et al., J. Biol. Chem. 277(47):45547-45557, 2002). BEAS-2B cells stably expressing human PDE4B2 (PDE4B2-stable cells) were obtained by plasmid transfection following Geneticin selection (300 μg/mL). […]

PDE4B2 [3] = test: PDE4B2 protein expression (Western blot) in airway epithelial cell extracts; format: cell-based, human; settings: NTHi and roflumilast
Description: as §2

PDE4B [4] = test: PDE4B mRNA expression (Q-PCR) in BEAS-2B cells stimulated with NTHi; format: cell-based, human; settings: for PDE4B mRNA expression: BEAS-2B, relative to control
Description: as §1
Cell culture. All media described below were supplemented with 10% fetal bovine serum (Sigma-Aldrich). Human bronchial epithelial BEAS-2B cells were maintained in RPMI medium (Life Technologies) (ATCC® CRL-9609™). Human primary bronchial epithelial NHBE (Lonza) cells were maintained in bronchial epithelial growth media (BEGM) supplemented with BEGM SingleQuots (Jono et al., J. Biol. Chem. 277(47):45547-45557, 2002). BEAS-2B cells stably expressing human PDE4B2 (PDE4B2-stable cells) were obtained by plasmid transfection following Geneticin selection (300 μg/mL). Cells were cultured in a humidified atmosphere of 5% CO2 at 37° C.

PDE4B [5] = test: PDE4B mRNA expression in lung tissues of NTHi-inoculated mice; settings: mice, Rof 5 mg/kg i.p. 2 hours before intratracheal NTHi 5×10^7 cfu per lung, after 5 hours

O=C(Nc1c(Cl)cncc1Cl)c1ccc(OC(F)F)c(OCC2CC2)c1 [roflumilast]
~70-kDa PDE4B isoform (PDE4B2 protein) (PDE4B2 [1]): induced an increase
nuclear expression level of p65 or PKA-Cβ (p65 or PKA-Cβ): did not affect
expression of PDE4D (PDE4D): up-regulated by NTHi or roflumilast but no significant synergistic effect
PDE4B mRNA expression (PDE4B [2]): increasing PDE4B mRNA significantly
~70-kDa PDE4B isoform (PDE4B2 protein) (PDE4B2 [3]): induced an increase
PDE4B expression at the mRNA level (PDE4B [4]; BEAS-2B cells, roflumilast with NTHi, Q-PCR, dose-dependent): synergized with NTHi to up-regulate PDE4B expression
PDE4B mRNA expression (PDE4B [4]; Rof 0.1 μM 1 h, then 1.5-hour NTHi at MOI of 25, 50, and 100): increased
PDE4B mRNA expression (PDE4B [4]; Rof 0.01, 0.1, and 1 μM 1 h, then 1.5-hour NTHi): increased
PDE4B mRNA expression in lung tissues (PDE4B [5]): synergistically enhanced
PDE4B mRNA expression in lung tissues (PDE4B [5]; listed as Rof): significantly elevated

— US11045456B2, “Compositions and methods for treating COPD and other inflammatory conditions” (Georgia State University Research Foundation, Inc., priority 2015, dated 2021)
